Assay results as given in a compilation of properties of binary mixtures (doi:10.1016/j.jct.2010.07.014).

Assay: xn = mol fraction of the nth substance listed
Conditions: 101 kPa

CCCC[n+]1ccccc1.F[B-](F)(F)F + CCO
speed of sound [m/s]
Conditions	303.15 K	313.15 K	323.15 K
x2 = 0.072	1575.2	–	1529.8
x2 = 0.147	1555.4	1532.9	1511.8
x2 = 0.2229	–	1520.8	–
x2 = 0.3295	1514.6	1492.5	1470.4
x2 = 0.4136	1488.6	1466.5	–
x2 = 0.5006	1454.7	1433.1	1409.4
x2 = 0.5789	–	–	1374.8
x2 = 0.7074	1345.6	1329.7	1306.2
x2 = 0.8052	–	1256.1	1233.5
x2 = 0.8999	1199.4	1175.8	–
x2 = 0.948	1163.7	1135.3	1106.3

CCCC[n+]1ccccc1.F[B-](F)(F)F + CO
Conditions	speed of sound [m/s]
293.15 K, x2 = 0.1574	1589.5
293.15 K, x2 = 0.2119	1580.3
293.15 K, x2 = 0.3113	1561.6
293.15 K, x2 = 0.3856	1545.2
293.15 K, x2 = 0.6109	1473.1
293.15 K, x2 = 0.7044	1424.8
293.15 K, x2 = 0.8043	1353.2
293.15 K, x2 = 0.9023	1256.7
303.15 K, x2 = 0.1058	1582.7
303.15 K, x2 = 0.2119	1558.3
303.15 K, x2 = 0.3856	1522.7
303.15 K, x2 = 0.5052	1491.6
303.15 K, x2 = 0.6109	1450.8
303.15 K, x2 = 0.8043	1330.3
303.15 K, x2 = 0.9023	1234.7
313.15 K, x2 = 0.1058	1552.6
313.15 K, x2 = 0.1574	1544.6
313.15 K, x2 = 0.2119	1535.7
313.15 K, x2 = 0.3113	1516.7
313.15 K, x2 = 0.3856	1500.1
313.15 K, x2 = 0.6109	1427.1
313.15 K, x2 = 0.7044	1378.5
313.15 K, x2 = 0.9512	1140.1
323.15 K, x2 = 0.211	1512.7
323.15 K, x2 = 0.3066	1494.7
323.15 K, x2 = 0.4111	1470.5
323.15 K, x2 = 0.5203	1440.9
323.15 K, x2 = 0.703	1363
323.15 K, x2 = 0.8081	1281.6
323.15 K, x2 = 0.9038	1172.9
